# Assay results published in the NIST ThermoML archive (doi:10.1021/je300152t).
# ± gives the expanded uncertainty stated by the source.
# Legend:
# [1] = Crystal; DTA
# [2] = Molar enthalpy of transition or fusion; conditions: Crystal; DSC
Structure (SMILES),Normal melting temperature [1] [°C],Molar enthalpy of transition or fusion [2] [kcal/mol]
CC(=O)Nc1ccc(C)cc1 [1-acetamido-4-methylbenzene],148.2 ± 0.7,7.03 ± 0.167
CC(=O)Nc1ccccc1 [N-phenylethanamide],113.8 ± 0.4,5.28 ± 0.12
O=C(Nc1ccccc1)c1ccccc1 [N-phenylbenzamide],162 ± 1,7.46 ± 0.359
COc1ccc(NC(C)=O)cc1 [N-(4-methoxyphenyl)ethanamide],125.1 ± 2.4,6.07 ± 0.191

# The remaining lines, values ahead:
Normal melting temperature [1] [°C],Molar enthalpy of transition or fusion [2] [kcal/mol],Structure (SMILES)
95 ± 0.9,6.91 ± 0.239,CCOc1cccc(NC(C)=O)c1 [N-(3-ethoxyphenyl)acetamide]
134 ± 1,7.65 ± 0.167,CCOc1ccc(NC(C)=O)cc1 [N-(4-ethoxyphenyl)ethanamide]
